Assay results reported in publication PMC6688371, “Effect of the inhaled PDE4 inhibitor CHF6001 on biomarkers of inflammation in COPD” (Respiratory Research, 2019).
Read-outs that look alike come from different tables or passages of the source.

Assays:
[1] = test system: markers of inflammation in blood; experiment: Markers of inflammation in blood (serum/plasma); type: in vivo, human; conditions: Day 32, geometric mean (%CV)
Protocol: Induced sputum was collected pre-dose on Day 1 of each treatment period (for the first treatment period, the sample could be collected up to 10 days prior to Day 1), and 2 h post-dose on Days 20, 26 and 32 (see the Additional file 1 for further detail on sputum and blood analysis methods). Blood samples were taken pre-dose on Day 1, and pre-dose and at 30 min, and 1, 1.5, 2, 3, 4, 6, 8 and 12 h post-dose on Day 32. Other pre-dose assessments on Days 1 and 32 were spirometry (forced expiratory volume in 1 s [FEV1] and forced vital capacity [FVC]), forced oscillometry, and COPD Assessment Test (CAT), with Baseline Dyspnea Index recorded on Day 1 and Transition Dyspnea Index (TDI) on Day 32. Central and peripheral airways mechanics were assessed using forced oscillometry, with the following values determined: inspiratory and expiratory resistance (at 5 and 19 Hz), inspiratory and expiratory reactance, tidal expiratory flow limitation and the percentage of flow limited breaths.
A patient had to have a minimum of one acceptable sputum sample on Day 20, 26 or 32 to be included in the sputum biomarker evaluation for that treatment period, with the available cell count and biomarker data averaged for each patient. The mean change from baseline (pre-dose on Day 1 of each treatment period) was then compared between treatments using an analysis of covariance (ANCOVA) that included treatment, patient and period as fixed effects, and baseline values as covariate. The mean change from baseline to Day 32 for biomarkers in blood were analysed using the same model as for sputum data. All data were log-transformed before analysis, and the results are presented as ratio of geometric means.
Effect of CHF6001 on inflammatory biomarkers – Additional file 1 […]
Analysis of biomarkers and CHF6001 concentration in blood
The levels of inflammatory biomarkers were evaluated from blood collected at 2 h post-dose […]
• Ex-vivo lipopolysaccharide (LPS) stimulated TNFα: 1.5 mL of blood collected into sodium heparin tubes was stimulated with 30 µL of LPS 5 µg/mL, incubated at 37C for 23 h, centrifuged at 2000 g for 10 min at 4C and plasma transferred to the central laboratory at –60 to –90C for analysis.
• Fibrinogen and MMP-3 and -9: Blood was collected into lithium heparin tubes, centrifuged at 2500 g for 15 min at 4C, and plasma transferred to the central […]
• IL-6, -16, and -18, CXCL8, TNFα, MCP-1, MIP 1β, club cell secretory protein 16 (CC16), C-reactive protein (CRP) and surfactant protein D (SP-D): Blood was collected into serum separator tubes and kept at room temperature for 30 –60 minutes to allow clotting. Samples were then centrifuged at 2000 g for 5 min at +4C and serum transferred to the central laboratory at –60 to –90C for analysis.
Levels of biomarkers were assessed as follows:
• Fibrinogen: K-Assay Fibrinogen kit, automated on the Beckman AU640 .
• IL-18, and MMP-3 and -9: PheraSTAR ELISA.
• IL-6, CXCL8, TNFα, MCP-1 and MIP-1β: Meso Scale Diagnostics v -PLEX Plus kit .
• CC16: Biovendor Elisa Kit, Oxford Biosystems.
• CRP: Randox Reagents, automated on the Beckman AU640 .
• IL-16: Meso Scale Diagnostics Sector Imager 6000.
• Serum SP-D: Sandwich Immunoassay, using PheraSTAR Plate Reader .
Validation procedures again followed those outlined for the analysis of biomarkers above. All […]
concentrations of biomarkers in human serum or plasma from regulatory studies.
Blood for the pharmacokinetic analysis was collected pre-dose and at 30 min, and 1, 1.5, 2, 3, 4, 6, 8 and 12 h post-dose on Day 32 of each treatment period. Samples were centrifuged at 2000 g for 15 min at 4C, with the resulting plasma shipped to the central laboratory at –60

[2] = Sputum concentration of CHF6001; type: in vivo, human; conditions: for concentration at 2 h: sputum, mean of all values measured on Days 20, 26 and 32, geometric mean (%CV), read-out: Sputum concentration at 2 h post-dose
Protocol: The mean changes from baseline to Day 32 for lung function, CAT and TDI were analysed using similar methodology to sputum biomarkers, but were not log-transformed. […] The sputum concentration of CHF6001 was also evaluated at 2 h post-dose, using the mean of all values measured on Days 20, 26 and 32. Pharmacokinetic variables were summarised using geometric means and coefficients of variation, except for Tmax,ss, which is presented as median (range). […]
Only one of the sputum samples induced at 2 h post-dose on Days 20, 26 or 32 was used to evaluate CHF6001 concentration, with the evaluation performed only if a minimum of 300 mg of residual sputum remained. Approximately 30 mg of sputum plug was transferred to a polypropylene cryotube, and was shipped in an upright position at –80C to a central laboratory for analysis. The concentration of CHF6001 was evaluated using a LC-MS/MS method following solid phase extraction. Validation procedures were the same as those listed above for biomarkers. […]
over the calibration range of 30 to 20,000 ng/mL. The precision and accuracy of the method […]
30 ng/mL and within 15% at all other concentrations. No significant matrix effects were […]
temperature (nominally +22C), after storage for 93 days in a freezer set at –80C and after four freeze-thaw cycles at nominally –80C / +22C. The method was considered to be suitable for measuring concentrations of CHF6001 in human sputum samples from […]

## CS(=O)(=O)Nc1ccc(C(=O)O[C@@H](Cc2c(Cl)c[n+]([O-])cc2Cl)c2ccc(OC(F)F)c(OCC3CC3)c2)cc1OCC1CC1 [CHF6001]
[1]; 800 µg BID
  C-X-C motif chemokine ligand 8 in blood, post-baseline: 13.565 (36.9)
  C-reactive protein in blood, post-baseline: 3.4462 (167.3) mg/L
  Club cell secretory protein 16 in blood, post-baseline: 4.6249 (67.5) ng/mL
  Fibrinogen in blood, post-baseline: 327.0 (47.5) mg/dL
  Interleukin 6 in blood, post-baseline: 1.8740 (63.9) pg/mL
  Interleukin 16 in blood, post-baseline: 183.95 (33.6) pg/mL
  Interleukin 18 in blood, post-baseline: 236.46 (43.0) pg/mL
  Macrophage inflammatory protein 1β in blood, post-baseline: 107.36 (35.2) pg/mL
  Matrix metalloproteinase 3 in blood, post-baseline: 19.356 (66.9) ng/mL
  Matrix metalloproteinase 9 in blood, post-baseline: 61.69 (88.4) ng/mL
  Monocyte chemotactic protein 1 in blood, post-baseline: 308.2 (33.3) pg/mL
  Serum surfactant protein D, post-baseline: 168.55 (67.6) ng/mL
  Tumour necrosis factor α in serum, post-baseline: 1.9453 (31.8) pg/mL
[1]; 1600 µg BID
  C-X-C motif chemokine ligand 8 in blood, post-baseline: 13.014 (42.2)
  C-reactive protein in blood, post-baseline: 3.7389 (135.5) mg/L
  Club cell secretory protein 16 in blood, post-baseline: 4.5701 (75.3) ng/mL
  Fibrinogen in blood, post-baseline: 367.8 (54.2) mg/dL
  Interleukin 6 in blood, post-baseline: 1.9386 (88.8) pg/mL
  Interleukin 16 in blood, post-baseline: 178.08 (30.4) pg/mL
  Interleukin 18 in blood, post-baseline: 252.43 (40.2) pg/mL
  Macrophage inflammatory protein 1β in blood, post-baseline: 113.88 (44.2) pg/mL
  Matrix metalloproteinase 3 in blood, post-baseline: 19.565 (53.9) ng/mL
  Matrix metalloproteinase 9 in blood, post-baseline: 52.19 (89.7) ng/mL
  Monocyte chemotactic protein 1 in blood, post-baseline: 323.6 (31.8) pg/mL
  Serum surfactant protein D, post-baseline: 167.66 (66.1) ng/mL
  Tumour necrosis factor α in serum, post-baseline: 1.9302 (35.7) pg/mL
[2]; 2 h post-dose, steady state (after Day 20), 800 vs 1600 μg BID
  Sputum concentration in relation to dose: dose-proportionality was observed
[2]; both sexes, human, sputum relative to plasma, inhaled, 2 h post-dose, steady state
  Kp at 2 h: ~2000
[2]; both sexes, human, 800 μg BID inhaled
  concentration at 2 h: 4900 ng/mL
[2]; both sexes, human, 1600 μg BID inhaled
  concentration at 2 h: 10200 ng/mL
